Here are results for 10 compounds from patent US4100276A, “Fusidic acid derivatives” (priority 1975, dated 1978).

Converted amounts (≈) assume the structure as drawn. Where a name gives a salt, the structure may show the parent alone. Read-outs that look alike come from different tables or passages of the source. A value given as a limit tells only on which side of the number the result lay.

Test [1] has as its system Streptococcus sp. Leo EG2. Put plainly: In vitro activity, concentration required for 50% inhibition (Table A). The format is cell-based.
The test system of the next test is Staph. aureus Leo CJ145. Described as above. The test is classed as cell-based. Conditions: for IC50: Staphylococcus aureus.
The next test relates to Corynebact. acnes Leo FN. The description is as above. The format is cell-based, Corynebacterium acnes. Conditions: for IC50: Cutibacterium acnes.
The test system of test [2] is Streptococcus pyogenes Leo EC. Described as above. The format is cell-based.
Test [3] deals with Staphylococcus aureus Leo CC178B. Described as above. The format is cell-based. The settings on record: for IC50: LEOCC178B, read-out: Concentration required for 50% inhibition (IC50).
Test [4] relates to Staph. aureus, Leo CC178H2 (fusidic acid resistant strain). The description is as above. The format is cell-based. Conditions: Staphylococcus aureus, read-out: Concentration required for 50% inhibition (IC50).
For test [5], the system named is Bacteroides fragilis, Leo JA2. The description is as above. The format is cell-based.
Another test concerns Staphylococcus aureus. Put plainly: In vitro effect of combination with dihydro-fusidic acid, viable counts (Example 46). The test is classed as cell-based. The settings on record: tubes a, b 10 μg/ml, tube c 5 + 5 μg/ml. On the procedure: In vitro-effect of the combination of dihydro-fusidic acid and 3α,11α-dihydroxy-16β-phenylthio-fusida-13(17),24-dien-21- oic acid
To three tubes containing NIH broth was added:
a. The sodium salt of dihydro-fusidic acid (10 μg/ml).
b. The sodium salt of 3α,11α-dihydroxy-16-phenylthiofusida-13(17),24-dien-21-oic acid (10 μg/ml).
c. A mixture of the sodium salts of dihydro-fusidic acid (5 μg/ml) and 3α,11α-dihydroxy-16-phenylthiofusida-13(17),24-dien-21-oic acid (5 μg/ml).
The tubes were inoculated with Staphylococcus aureus to give 5.2 × 10^5 organisms per ml, incubated at 37° C for 96 hours, and the viable counts were determined.
A fourth tube was treated similarly without addition of any of the antibiotics and used as a control: […]

[6] abbreviates: Streptococcus sp. Leo EG2, read-out: Concentration required for 50% inhibition (IC50).
The mark [7] stands for this setting: LEOCJ145, Staph. aureus Leo CJ145, read-out: Concentration required for 50% inhibition (IC50).
Where [8] appears, read: Corynebact. acnes Leo FN, read-out: Concentration required for 50% inhibition (IC50).
Where [9] appears, read: Streptococcus pyogenes Leo EC, read-out: Concentration required for 50% inhibition (IC50).
[10] abbreviates: Staphylococcus aureus Leo CC178B.
[11] abbreviates: LEOJA2, Bacteroides fragilis Leo JA2, read-out: Concentration required for 50% inhibition (IC50).
[12] abbreviates: Streptococcus, read-out: Concentration required for 50% inhibition (IC50), Streptococcus sp. Leo EG2.
Setting [13] is: Streptococcus pyogenes, read-out: Concentration required for 50% inhibition (IC50), Streptococcus pyogenes Leo EC.
[14] abbreviates: Bacteroides fragilis, LEOJA2, read-out: Concentration required for 50% inhibition (IC50), Bacteroides fragilis Leo JA2.

As to `CC(C)=CCCC(C(=O)O)C1=C2C[C@@H](O)[C@H]3[C@@]4(C)CC[C@@H](O)[C@@H](C)[C@@H]4CC[C@]3(C)[C@@]2(C)C[C@@H]1Sc1ccc(Br)cc1` (stereo partly drawn) [Example 2, 3α,11α-dihydroxy-16β--(4'-bromophenylthio)fusida-13(17),24-dien-21-oic acid sodium salt], the IC50 is 0.5 µg/mL in test [1] (setting [6]); 100 µg/mL in the test on Staph. aureus Leo CJ145 (setting [7]); 0.63 µg/mL in the test on Corynebact. acnes Leo FN (setting [8]); 0.2 µg/mL in test [2] (setting [9]); 6.3 µg/mL in test [3] (setting [10]); 10 µg/mL in test [4]. For the same compound, the IC50 in test [5] (setting [11]) is 13 µg/mL.
On to `CC(C)CCCC(C(=O)O)C1=C2C[C@@H](O)[C@H]3[C@@]4(C)CC[C@@H](O)[C@@H](C)[C@@H]4CC[C@]3(C)[C@@]2(C)C[C@@H]1Sc1ccccc1` (stereo partly drawn) [Example 8, 3α,11α-Dihydroxy-16β-phenylthiofusida-13(17)-en-21-oic acid, sodium salt], for which the IC50 was 0.5 µg/mL in test [1] (setting [6]); 1.6 µg/mL in the test with Corynebact. acnes Leo FN (setting [8]); 0.5 µg/mL in test [2] (setting [9]); 2 µg/mL in test [3] (setting [10]); 2.5 µg/mL in test [4]; > 100 µg/mL in test [5] (setting [11]).
As to `CC(C)=CCCC(C(=O)O)C1=C2C[C@@H](O)[C@H]3[C@@]4(C)CC[C@@H](O)[C@@H](C)[C@@H]4CC[C@]3(C)[C@@]2(C)C[C@@H]1SC(C)(C)C` (some centres unmarked) [Example 13], the IC50 was 1.6 µg/mL (≈ 2.93 µM) in test [1] (setting [6]); 7.9 µg/mL (≈ 14.4 µM) in the test on Staph. aureus Leo CJ145 (setting [7]); 0.5 µg/mL (≈ 0.914 µM) in the test with Corynebact. acnes Leo FN (setting [8]); 0.63 µg/mL (≈ 1.15 µM) in test [2] (setting [9]); 1.6 µg/mL (≈ 2.93 µM) in test [3] (setting [10]); 1.6 µg/mL (≈ 2.93 µM) in test [4]. The IC50 in test [5] (setting [11]) came to 2 µg/mL (≈ 3.66 µM).
Regarding `C=CCS[C@H]1C[C@@]2(C)C(=C1C(CCC=C(C)C)C(=O)O)C[C@@H](O)[C@H]1[C@@]3(C)CC[C@@H](O)[C@@H](C)[C@@H]3CC[C@@]12C` (some centres unmarked) [Example 14], the IC50 in test [1] (setting [6]) is 1.6 µg/mL (≈ 3.01 µM); in the test with Staph. aureus Leo CJ145 (setting [7]) it was 5 µg/mL (≈ 9.42 µM); in the test on Corynebact. acnes Leo FN (setting [8]), 1.6 µg/mL (≈ 3.01 µM); in test [2] (setting [9]), 0.32 µg/mL (≈ 0.603 µM); in test [3] (setting [10]) it was 1.6 µg/mL (≈ 3.01 µM); in test [4], 1.6 µg/mL (≈ 3.01 µM). For the same compound, the IC50 in test [5] (setting [11]) was determined as 4 µg/mL (≈ 7.54 µM).
As for `CC(C)=CCCC(C(=O)O)C1=C2C[C@@H](O)[C@H]3[C@@]4(C)CC[C@@H](O)[C@@H](C)[C@@H]4CC[C@]3(C)[C@@]2(C)C[C@@H]1SCc1ccco1` (some centres unmarked) [Example 23], the IC50 in test [1] (setting [6]) was found to be 1.6 µg/mL (≈ 2.8 µM); in the test on Staph. aureus Leo CJ145 (setting [7]) it was 7.9 µg/mL (≈ 13.8 µM); in the test on Corynebact. acnes Leo FN (setting [8]), 0.79 µg/mL (≈ 1.38 µM); in test [2] (setting [9]) it was 0.63 µg/mL (≈ 1.1 µM); in test [3] (setting [10]) it was 1.6 µg/mL (≈ 2.8 µM); in test [4] it was 1.6 µg/mL (≈ 2.8 µM). In addition, in test [5] (setting [11]), the IC50 worked out at 16 µg/mL (≈ 28 µM).
For `CC(C)CCCC(C(=O)O)C1=C2C[C@@H](O)[C@H]3[C@@]4(C)CC[C@@H](O)[C@@H](C)[C@@H]4CC[C@]3(C)[C@@]2(C)C[C@@H]1SC(C)C` (stereo partly drawn) [Example 26, 3α,11α-Dihydroxy-16β-isopropylthiofusida-13(17)-en-21-oic acid sodium salt], the IC50 turned out to be 0.5 µg/mL in test [1] (setting [12]); 0.5 µg/mL with Corynebact. acnes Leo FN (read-out: Concentration required for 50% inhibition (IC50), Corynebact. acnes Leo FN); 0.5 µg/mL in test [2] (setting [13]); 1.6 µg/mL in test [3] (Staphylococcus aureus); 1.6 µg/mL in test [4]; 20 µg/mL in test [5] (setting [14]).
Turning to `CC(C)=CCCC(C(=O)O)C1=C2C[C@@H](O)[C@H]3[C@@]4(C)CC[C@@H](O)[C@@H](C)[C@@H]4CC[C@]3(C)[C@@]2(C)C[C@@H]1SC(C)C` (stereo partly drawn) [Example 27, 3α,11α-Dihydroxy-16β-isopropylthiofusida-13(17), 24-dien-21-oic acid], the IC50 was determined as 1 µg/mL (≈ 1.88 µM) in test [1] (setting [12]); 4 µg/mL (≈ 7.51 µM) with Staph. aureus Leo CJ145 (LEOCJ145, read-out: Concentration required for 50% inhibition (IC50), Staph. aureus Leo CJ145); 0.63 µg/mL (≈ 1.18 µM) in test [2] (setting [13]); 1.6 µg/mL (≈ 3 µM) in test [3] (Staphylococcus aureus); 1.6 µg/mL (≈ 3 µM) in test [4]; 10 µg/mL (≈ 18.8 µM) in test [5] (setting [14]). Further, the “Concentration required for 50% inhibition (IC50)” value in the test with Corynebact. acnes Leo FN (Corynebact. acnes Leo FN) stood at 0.63 µg/mL.
As for `CC(C)=CCCC(C(=O)O)C1=C2C[C@@H](O)[C@H]3[C@@]4(C)CC[C@@H](O)[C@@H](C)[C@@H]4CC[C@]3(C)[C@@]2(C)C[C@@H]1SC(C)C` (stereo partly drawn) [Example 31C, 3α,11α-dihydroxy-16β-isopropylthiofusida-13(17),24-dien-21-oic acid], the “Concentration required for 50% inhibition (IC50)” value in test [1] (Streptococcus sp. Leo EG2) turned out to be 0.63 µg/mL; with Staph. aureus Leo CJ145 (Staph. aureus Leo CJ145) it was 4.0 µg/mL; in the test on Corynebact. acnes Leo FN (Corynebact. acnes Leo FN) it was 0.63 µg/mL; in test [2] (Streptococcus pyogenes Leo EC), 0.5 µg/mL; in test [3] (setting [10]) it was 1.6 µg/mL; in test [5] (Bacteroides fragilis Leo JA2), 6.3 µg/mL.
Turning to `CC(C)=CCCC(C(=O)O)C1=C2C[C@@H](O)[C@H]3[C@@]4(C)CC[C@@H](O)[C@@H](C)[C@@H]4CC[C@]3(C)[C@@]2(C)C[C@@H]1SC(C)C` (stereo partly drawn) [Example 31D, 3α,11α-dihydroxy-16β-isopropylthiofusida-13(17),24-dien-21-oic acid], the “Concentration required for 50% inhibition (IC50)” value in test [1] (Streptococcus sp. Leo EG2) came to 0.79 µg/mL; in the test with Staph. aureus Leo CJ145 (Staph. aureus Leo CJ145), 5.0 µg/mL; with Corynebact. acnes Leo FN (Corynebact. acnes Leo FN) it was 1.6 µg/mL; in test [2] (Streptococcus pyogenes Leo EC), 0.63 µg/mL; in test [3] (setting [10]) it was 1.6 µg/mL.
With `CC(=O)O[C@H]1C[C@@]2(C)[C@@H](C[C@@H](O)[C@H]3[C@@]4(C)CC[C@@H](O)[C@@H](C)[C@@H]4CC[C@@]32C)/C1=C(\CCCC(C)C)C(=O)O` [sodium salt of dihydro-fusidic acid, reference compound], in the test with Staphylococcus aureus (37° C, inoculum 5.2 × 10^5), the “Viable counts after 6 1/2 hours” value is recorded as 3.1 × 10^5 organisms per ml, the “Viable counts after 2 hours” value is on record as 4.1 × 10^5 organisms per ml and the “Viable counts after 24 hours” value is 6.3 × 10^6 organisms per ml. Moreover, in the test with Staphylococcus aureus (96 hours), the “Resistance of surviving organisms to the compound / development of resistance” value is reported as “resistant to dihydro-fusidic acid”.
